{
  "source": "patent US20220008402A1",
  "about": "“INCREASED E-CADHERIN EXPRESSION OR ACTIVITY FOR THE TREATMENT OF INFLAMMATORY DISEASES” (The Cleveland Clinic Foundation, priority 2020, published 2022)",
  "key": {"E-cadherin": {"system": "E-cadherin", "settings": "literature reports; cited from earlier work"}, "[1]": {"system": "HT-29 cF8 cell monolayers", "experiment": "Epithelial barrier permeability in vitro (TEER, FITC-dextran flux), steady state", "format": "cell-based, human", "settings": "10 μM", "procedure": "(§1) FIG. 1: E-cadherin-enhancing drugs decrease ionic permeability of model colonic epithelial cell monolayers. Confluent T84 (A), HT-29cF8 (B) and SK-0015 (C) cell monolayers were treated for indicated times with either vehicle, E-cadherin upregulator (ECU, 10 μM), or ML327 (10 μM). Transepithelial electrical resistance (TEER) of the cell monolayers was measured before and during the drug treatment. Data is presented as mean ±SE (n=3); *P<0.05.\n(§2) FIG. 2: E-cadherin-enhancing drugs decrease colonic epithelial permeability to large molecules. Confluent T84 (A), HT-29cF8 (B) and SK-C015 (C) cell monolayers were treated with either vehicle, ECU, or ML327, as described in the FIG. 1 legend. Trans-monolayer flux of FITC-dextran was determined at the end of the drug treatment. Data is presented as mean ±SE (n=3); **P<0.05 ***P<0.01.\n(§3) Transepithelial electrical resistance (TEER) of cultured T84, HT-29 and SK-C015 intestinal epithelial cell monolayers was measured using an EVOMX voltohmmeter (World Precision Instruments, Sarasota, Fla.). Cells were plated on collagen-coated transwell filters (pore size 3 μm, Thermo-Fisher). The resistance of cell-free collagen-coated filters was subtracted from each experimental point. An in vitro dextran flux assay was performed by a following commonly-used protocol. Intestinal epithelial cell monolayers growing on transwell filters were apically exposed to 1 mg/ml of FITC-labeled dextran (4,000 Da) in HEPES-buffered Hanks balanced salt solution (HBSS). After 120 min of incubation, HBSS samples were collected from the lower chamber, and FITC fluorescence intensity was measured using a Victor^3 V plate reader (Perkin Elmer, Waltham, Mass.) with excitation and emission wavelengths 485 and 544 nm, respectively. After subtracting the fluorescence of dextran-free HBSS the amount of FITC dextran translocated across the epithelial cell monolayer was calculated based on a calibration curve using Prism 5 software (GraphPad, La Jolla, Calif.).\n(§4) One set of experiments examined the effects of E-cadherin upregulator (ECU) and ML327 on the barrier properties of normal model intestinal epithelial cell monolayers. Three different human colonic epithelial cell lines, namely, T84, SK-0015 and HT-29 cF8 cells, were used. Cells were plated on collagen-coated transwell filters and allowed to reach confluency and differentiate for 5-7 days after plating. Thereafter, cell monolayers were exposed to either ECU (10 μM), ML327 (10 μM) or vehicle (DMSO). Transepithelial electrical resistance (TEER) was measured before and at different times after addition of E-cadherin-enhancing drugs. A transepithelial flux of FITC-dextran was examined at the end of the drug exposure to evaluate epithelial permeability to large uncharged molecules."}, "T84 cell monolayers [2]": {"system": "T84 cell monolayers", "experiment": "Epithelial barrier permeability in vitro (TEER, FITC-dextran flux), steady state", "format": "cell-based, human", "settings": "10 μM", "procedure": "as §1, §2, §3, §4"}, "SK-0015 cell monolayers": {"system": "SK-0015 cell monolayers", "experiment": "Epithelial barrier permeability in vitro (TEER, FITC-dextran flux), steady state", "format": "cell-based, human", "settings": "10 μM", "procedure": "as §1, §2, §3, §4"}, "T84 cell monolayers [3]": {"system": "T84 cell monolayers", "experiment": "Immunoblotting of signaling molecules after multiple wounding", "format": "cell-based, human", "settings": "10 μM pretreatment 24 h; lysates 12 and 24 h post-wounding", "procedure": "Confluent T84 cell monolayers were pretreated with either vehicle, ECU (10 μM), or ML327 (10 μM), for 24 h, and were subjected to multiple wounding. Total cell lysates were collected at 12 and 24 h post-wounding, and the expression of different signaling molecules was determined by immunoblotting. Representative immunoblots (A) and densitometric quantification of protein band intensities from three independent experiments (B) are shown. Data are presented as a mean ±SE (n=3); *p<0.05; **p<0.01.\nTo prepare total cell lysates, epithelial cell monolayers were scraped and homogenized using a Dounce homogenizer in RIPA buffer (20 mM Tris, 50 mM NaCl, 2 mM EDTA, 2 mM EGTA, 1% sodium deoxycholate, 1% Triton X-100 (TX-100), and 0.1% SDS, pH 7.4) containing protease inhibitor cocktail and phosphatase inhibitor cocktails 2 and 3 (Sigma-Aldrich). The obtained total cell lysates were cleared by centrifugation (20 min at 14,000×g), diluted with 2×SDS sample loading buffer and boiled. SDS-polyacrylamide gel electrophoresis was conducted using a standard protocol with equal amounts of total protein (10 or 20 μg) loaded per each lane. The separated proteins were transferred to nitrocellulose membranes and the membranes were blocked with 5% non-fat milk. […]"}, "T84 cell monolayers [4]": {"system": "T84 cell monolayers", "experiment": "Wound healing assay", "format": "cell-based, human", "settings": "10 μM pretreatment 24 h, migration 24-48 hours", "procedure": "FIG. 8: E-cadherin-enhancing drug promote collective migration of intestinal epithelial cells. Confluent T84 cell monolayers were pretreated with either vehicle, ECU (10 μM) or ML327 (10 μM) for 24 hours. Afterwards, cell monolayers were wounded and allowed to migrate into wound area in the presence of the drugs. Cell monolayers were photographed and wound closure was calculated at the indicated times. Data is presented as mean ±SE (n=3); **P<0.05, ***P<0.01.\nConfluent epithelial cell monolayers were mechanically wounded by making a thin scratch wound with a 200 μl pipette tip. The bottom of the well was marked to define the position of the wound and the monolayers were supplied with fresh cell culture medium. The images of a cell-free area at the marked region were acquired at the indicated times after wounding using an inverted bright field microscope equipped with a camera. The percentage of wound closure was calculated using an Image J software (NIH, Bethesda, Md.).\nFinally, the effects of E-cadherin-enhancing drugs on epithelial restitution (wound healing) were examined. This is an important question given the fact that epithelial wounds are frequently formed in inflamed intestinal mucosa of IBD patients and wound healing is necessary to restore the integrity of the gut barrier and to achieve remission of chronic inflammatory diseases. […]"}, "T84 cell monolayers [5]": {"system": "T84 cell monolayers", "experiment": "Cytokine (TNFα/IFNγ)-induced disruption of the epithelial barrier (TEER, FITC-dextran flux)", "format": "cell-based, human", "settings": "10 μM pretreatment 24 h, then TNFα 10 ng/ml + IFNγ 50 ng/ml, 48 h", "procedure": "(§5) Confluent T84 cell monolayers were pretreated with either vehicle, or ECU (10 μM) for 24 h. Afterwards, cells were exposed to a combination of TNFα (10 ng/ml) and IFNγ (50 ng/ml) with and without ECU. (A) TEER was measured at the indicated times. (B) FITC-dextran flux was examined after 48 h incubation with cytokines. Data is presented as mean ±SE (n=3); ***P<0.001.\nas §5, with “ML327” for “ECU”, “hours.” for “h.”, “ML327.” for “ECU.”, “(n=3); **P<0.05,” for “(n=3);”\nas §3\nA combination of two cytokines were selected: tumor necrosis factor alpha (TNFα, 10 ng/ml) and interferon-gamma (IFNγ, 50 ng/ml), which are known to compromise barrier integrity and trigger apical junction disassembly in cultured epithelial cell monolayers and intestinal mucosa in mice. Indeed, 48 hour incubation of well-differentiated T84 cell monolayers with TNFα and IFNγ caused a dramatic decrease in TEER (FIGS. 3A, 4A) and increase in transepithelial dextran flux (FIGS. 3B, 4B), which indicates the increase in barrier permeability. […] Next, it was examined if ECU protects epithelial adherens junctions (AJ) and tight junctions (TJ) from cytokine-induced disassembly. Immunofluorescence labeling of a specific AJ marker, E-cadherin, and a TJ marker, ZO-1, was used to visualize structure of different junctional complexes. […]"}, "[6]": {"settings": "at the end of the drug exposure"}, "[7]": {"settings": "rapid (within 24 h) and sustained (up to 96 h), vs vehicle (DMSO)"}},
  "note": "Entries after “also recorded” stand apart in the source; their conditions may differ.",
  "data": [
    {"smiles": "Nc1ncn([C@@H]2O[C@H](CO)[C@@H](O)[C@H]2O)c(=O)n1", "note": "[5-Axacytidine]", "values": [
      {"measurement": "E-cadherin expression", "setting": "E-cadherin", "result": "stimulate E-cadherin expression"}
    ]},
    {"smiles": "CN(C)C(=S)NN=C(c1ccccn1)c1ccccn1", "note": "[Dp44mT, Di(2-pyridyl)ketone 4,4-dimethyl-3-thiosemicarbazone]", "values": [
      {"measurement": "E-cadherin expression", "setting": "E-cadherin", "result": "stimulate E-cadherin expression"}
    ]},
    {"smiles": "CN(C(=S)NN=C(c1ccccn1)c1ccccn1)C1CCCCC1", "note": "[DpC, di(2-pyridyl)ketone 4-cyclohexyl-4-methyl-3-thiosemicarbazone]", "values": [
      {"measurement": "E-cadherin expression", "setting": "E-cadherin", "result": "stimulate E-cadherin expression"}
    ]},
    {"smiles": "O=C(NCCCNC(=O)c1cccnc1O)c1cc(-c2ccccc2)on1", "note": "[ML327, N-(3-(2-hydroxynicotinamido)propyl)-5-phenylisoxazole-3-carboxamide]", "values": [
      {"measurement": "Transepithelial flux of FITC-dextran", "setting": "[1]; [6]", "result": "significantly inhibited FITC-dextran flux"},
      {"measurement": "Transepithelial electrical resistance (TEER)", "setting": "[1]; up to 96 h, vs vehicle (DMSO)", "result": "transiently increased TEER for the first 48 hours with its subsequent decrease at later times"},
      {"measurement": "Transepithelial flux of FITC-dextran", "setting": "T84 cell monolayers [2]; at the end of the drug exposure, T84", "result": "significantly inhibited FITC-dextran flux"},
      {"measurement": "Transepithelial electrical resistance (TEER)", "setting": "T84 cell monolayers [2]; [7]", "result": "increase in TEER"},
      {"measurement": "Transepithelial flux of FITC-dextran", "setting": "SK-0015 cell monolayers; [6]", "result": "significantly inhibited FITC-dextran flux"},
      {"measurement": "Transepithelial electrical resistance (TEER)", "setting": "SK-0015 cell monolayers; [7]", "result": "increase in TEER"},
      {"measurement": "Expression of signaling molecules (pro-migratory signaling)", "setting": "T84 cell monolayers [3]", "result": "activation of pro-migratory signaling events"},
      {"measurement": "Cell migration during wound healing (wound closure)", "setting": "T84 cell monolayers [4]", "result": "significantly increased migration"},
      {"measurement": "Cytokine-induced decrease in TEER", "setting": "T84 cell monolayers [5]", "result": "prevents cytokine-induced disruption; also recorded: markedly attenuated"},
      {"measurement": "Cytokine-induced increase in transepithelial FITC-dextran flux", "setting": "T84 cell monolayers [5]", "result": "prevents cytokine-induced disruption; also recorded: markedly attenuated"}
    ]},
    {"smiles": "CCCCCCCCCCCCC/C=C/[C@@H](O)[C@@H](N)COP(=O)(O)O", "note": "[Sphingosine-1-Phosphate]", "values": [
      {"measurement": "E-cadherin expression", "setting": "E-cadherin", "result": "stimulate E-cadherin expression"}
    ]},
    {"smiles": "CN(Cc1cnc2nc(N)nc(N)c2n1)c1ccc(C(=O)N[C@@H](CCC(=O)O)C(=O)O)cc1", "note": "[methotrexate]", "values": [
      {"measurement": "E-cadherin expression", "setting": "E-cadherin", "result": "stimulated E-cadherin expression"}
    ]}
  ]
}
